Test results reported in article PMC10744196, “Characterization of CrufCSP1 and Its Potential Involvement in Host Location by Cotesia ruficrus (Hymenoptera: Braconidae), an Indigenous Parasitoid of Spodoptera frugiperda (Lepidoptera: Noctuidae) in China” (Insects, 2023).

The molecules below were run against CrufCSP1 (assay: Fluorescence competitive binding assay with 1-NPN as probe). Details: not given.
Design: species or system Cotesia ruficrus
Experimental: (§1) The binding affinity between CrufCSP1 and the selected volatile compounds was determined using an F-7000 fluorescence spectrophotometer (Hitachi, Tokyo, Japan). N-phenyl-1-naphthylamine (1-NPN), a fluorescence probe, was used to assess the binding affinity. A total of 24 volatiles, i.e., alcohols (heptanol, undecanol, tetradecanol, cis-3-hexen-1-ol, 1,14-tetradecanediol, 2-hexanol, phytol, and linalool), aldehydes (hexanal, heptanal, octanal, nonanal, decanal, dodecanal, pentadecanal, benzaldehyde, p-methyl benzaldehyde, and trans-2-hexenal), and others (2-hydroxy-5-methylacetophenone, 2-heptanone, palmitic acid, N,N-dimethylcaprylamide, DMNT, and cis-3-hexenyl acetate), were selected for the fluorescence binding assay with CrufCSP1. Of these compounds, our research group previously identified undecanol, tetradecanol, 2-hexanol, 1,14-tetradecanediol, phytol, dodecanal, pentadecanal, p-methyl benzaldehyde, palmitic acid, 2-hydroxy-5-methylacetophenone, and N,N-dimethylcaprylamide in the larvae of S. frugiperda. The remaining compounds were chosen based on previous studies that identified them as corn volatiles.
To prepare the tested chemicals, all were dissolved in chromatographic grade methanol to achieve a 100 mM solution, which was then stored at −20 °C. Before use, this solution was diluted to 1 mM. CrufCSP1 was dissolved in 20 mM of tris-HCl (pH 7.4) and then diluted to a 2 μM working solution. To ensure the binding affinity of 1-NPN to the protein, the CrufCSP1 solution was titrated with 1-NPN with a concentration range of 2 to 20 μM. For the fluorescence competitive binding assays, each ligand was added to a mixture containing CrufCSP1 (2 μM) and 1-NPN (2 μM) at concentrations ranging from 0 to 30 μM. The maximum fluorescence intensity was then recorded and plotted against the ligand concentration based on the average of the three repeats. The dissociation constant (Kd) for binding between CrufCSP1 and 1-NPN was calculated using the Scatchard linear regressive equation in the software GraphPad Prism 8.0 (GraphPad Software Inc., La Jolla, CA, USA). Additionally, the ligand-binding affinity (Ki) was calculated utilizing the following equation: Ki=[IC50]/(1+[1−NPN]/K1−NPN) where IC50 represents the maximum concentration at which the ligand replaces 50% of the 1 − NPN fluorescence, [1 − NPN] denotes the free concentration of 1-NPN, and K1-NPN represents the dissociation constant of the protein/1 − NPN complex.

Molecule | Ki [µM]
O=Cc1ccccc1 [Benzaldehyde] | 15.2
C=C/C=C(\C)CCC=C(C)C [DMNT] | > 50
CCCCCCCCCCCCCCC=O [Pentadecanal] | 39
Cc1ccc(C=O)cc1 [p-Methyl benzaldehyde] | 40.3
CCC/C=C/C=O [trans-2-Hexenal] | 14.5
Phytol | > 50

Same assay, conditions: calculated from IC50: Ki=[IC50]/(1+[1-NPN]/K1-NPN); CrufCSP1 2 μM, 1-NPN 2 μM

Molecule | Ki [µM]
OCCCCCCCCCCCCCCO [1,14-Tetradecanediol] | > 50
CCCCC(C)O (centres unmarked) [2-Hexanol] | > 50
CCCCCCCCCC=O [Decanal] | 21.8
CCCCCCCCCCCC=O [Dodecanal] | 36
CCCCCCCO [Heptanol] | 27.7
C=CC(C)(O)CCC=C(C)C (centres unmarked) [Linalool] | 19.8
CCCCCCCC(=O)N(C)C [N,N-Dimethylcaprylamide] | 19.3
CCCCCCCCC=O [Nonanal] | > 50
CCCCCCCC=O [Octanal] | 15
CCCCCCCCCCCCCCO [Tetradecanol] | > 50

Further lines, results first:

Ki [µM] | Molecule
> 50 | CCCCCC(C)=O [2-Heptanone]
20 | CC(=O)c1cc(C)ccc1O [2-Hydroxy-5-methylacetophenone]
> 50 | CCCCCCC=O [Heptanal]
19.4 | CCCCCC=O [Hexanal]
> 50 | CCCCCCCCCCCCCCCC(=O)O [Palmitic acid]
> 50 | CCCCCCCCCCCO [Undecanol]
24.7 | CC/C=C\CCO [cis-3-Hexen-1-ol]
29.2 | CC/C=C\CCOC(C)=O [cis-3-Hexenyl acetate]

Same assay, conditions: calculated from IC50: Ki=[IC50]/(1+[1-NPN]/K1-NPN); CrufCSP1 2 μM, 1-NPN 2 μM; listed as 2-hydroxy-5-methylacetophenone

Ki [µM] | Molecule
< 20 | CC(=O)c1cc(C)ccc1O [2-Hydroxy-5-methylacetophenone]

Same assay, conditions: calculated from IC50: Ki=[IC50]/(1+[1-NPN]/K1-NPN); CrufCSP1 2 μM, 1-NPN 2 μM; listed as N,N-dimethylcaprylamide

Ki [µM] | Molecule
< 20 | CCCCCCCC(=O)N(C)C [N,N-Dimethylcaprylamide]

Same assay, conditions: calculated from IC50: Ki=[IC50]/(1+[1-NPN]/K1-NPN); CrufCSP1 2 μM, 1-NPN 2 μM; listed as hexanal

Ki [µM] | Molecule
< 20 | CCCCCC=O [Hexanal]

Same assay, conditions: calculated from IC50: Ki=[IC50]/(1+[1-NPN]/K1-NPN); CrufCSP1 2 μM, 1-NPN 2 μM; listed as linalool

Ki [µM] | Molecule
< 20 | C=CC(C)(O)CCC=C(C)C (centres unmarked) [Linalool]

Same assay, conditions: calculated from IC50: Ki=[IC50]/(1+[1-NPN]/K1-NPN); CrufCSP1 2 μM, 1-NPN 2 μM; listed as octanal

Ki [µM] | Molecule
< 20 | CCCCCCCC=O [Octanal]

Same assay, conditions: listed as benzaldehyde

Molecule | Ki [µM]
O=Cc1ccccc1 [Benzaldehyde] | < 20

Same assay, conditions: listed as trans-2-hexenal

Molecule | Ki [µM]
CCC/C=C/C=O [trans-2-Hexenal] | < 20

Same assay, conditions: recombinant CrufCSP1 2 μM, 1-NPN 2 μM, ligand 0 to 30 μM, tris-HCl pH 7.4

Molecule | IC50 [µM]
OCCCCCCCCCCCCCCO [1,14-Tetradecanediol] | > 50
CCCCC(C)O (centres unmarked) [2-Hexanol] | > 50
O=Cc1ccccc1 [Benzaldehyde] | 17.4
C=C/C=C(\C)CCC=C(C)C [DMNT] | > 50
CCCCCCCCCC=O [Decanal] | 24.9
CCCCCCCCCCCC=O [Dodecanal] | 41.1
CCCCCCCO [Heptanol] | 31.6
C=CC(C)(O)CCC=C(C)C (centres unmarked) [Linalool] | 22.6
CCCCCCCC(=O)N(C)C [N,N-Dimethylcaprylamide] | 22
CCCCCCCCC=O [Nonanal] | > 50
CCCCCCCC=O [Octanal] | 17.2
CCCCCCCCCCCCCCC=O [Pentadecanal] | 44.5
CCCCCCCCCCCCCCO [Tetradecanol] | > 50
Cc1ccc(C=O)cc1 [p-Methyl benzaldehyde] | 46
CCC/C=C/C=O [trans-2-Hexenal] | 16.5
Phytol | > 50

Other lines, results leading:

IC50 [µM] | Molecule
> 50 | CCCCCC(C)=O [2-Heptanone]
22.8 | CC(=O)c1cc(C)ccc1O [2-Hydroxy-5-methylacetophenone]
> 50 | CCCCCCC=O [Heptanal]
22.1 | CCCCCC=O [Hexanal]
> 50 | CCCCCCCCCCCCCCCC(=O)O [Palmitic acid]
> 50 | CCCCCCCCCCCO [Undecanol]
28.2 | CC/C=C\CCO [cis-3-Hexen-1-ol]
33.4 | CC/C=C\CCOC(C)=O [cis-3-Hexenyl acetate]

These molecules were tested against CrufCSP1 (assay: Binding of fluorescent probe 1-NPN to recombinant CrufCSP1 (Scatchard plot)). Details: CrufCSP1 2 μM titrated with 1-NPN 2 to 20 μM, read-out: dissociation constant toward 1-NPN.
Design: species or system Cotesia ruficrus
Experimental: as §1, with “Of these compounds, our research group previously identified undecanol, tetradecanol, 2-hexanol, 1,14-tetradecanediol, phytol, dodecanal, pentadecanal, p-methyl benzaldehyde, palmitic acid, 2-hydroxy-5-methylacetophenone, and N,N-dimethylcaprylamide in the larvae of S. frugiperda. The remaining compounds were chosen based on previous studies that identified them as corn volatiles.” left out
To prepare the tested chemicals, all were dissolved in chromatographic grade methanol to achieve a 100 mM solution, which was then stored at −20 °C. […] For the fluorescence competitive binding assays, each ligand was added to a mixture containing CrufCSP1 (2 μM) and 1-NPN (2 μM) at concentrations ranging from 0 to 30 μM. The maximum fluorescence intensity was then recorded and plotted against the ligand concentration based on the average of the three repeats. […]

Molecule | Kd [µM]
c1ccc(Nc2cccc3ccccc23)cc1 [1-NPN, N-phenyl-1-naphthylamine] | 7.67
